From ChEMBL document CHEMBL1201862, “PubChem BioAssay data set” (2004)
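All cell lines were grown in 96-well plates and treated with compound for 48 hours. GI50: concentration for 50% inhibition of growth.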 Calls of active or inactive are those of the source. No stated cut-off is given here; in the data, active = GI50 up to about 1.1 µM and inactive = higher.

Legend:
Assay in all cases: DTP human tumour cell line panel, 48 h
[1] = system: A549
[2] = system: HL-60
[3] = system: HOP-92
[4] = system: HT-29
[5] = system: Hs-578T
[6] = system: IGROV-1
[7] = system: KM12
[8] = system: LOX IMVI
[9] = system: MDA-MB-435
[10] = system: MOLT-4
[11] = system: Malme-3M
[12] = system: NCI-H23
[13] = system: NCI-H522
[14] = system: NCI/ADR-RES
[15] = system: OVCAR-8
[16] = system: RPMI-8226
[17] = system: SK-MEL-2
[18] = system: SK-OV-3
[19] = system: SNB-19
[20] = system: TK-10

Measured: GI50

Cn1c2c(c3ccccc3c1=O)C(=O)c1ccccc1-2
inactive: [1] > 100 µM | [2] 6.93 µM | [3] > 100 µM | [4] 97.5 µM | [5] > 100 µM | [6] > 100 µM | [7] > 100 µM | [8] 27.2 µM | [9] > 100 µM | [10] 3.07 µM | [11] > 100 µM | [12] 30.8 µM | [13] 11.7 µM | [14] 51.2 µM | [15] 32.9 µM | [16] > 100 µM | [17] > 100 µM | [18] 81.7 µM | [19] 44.2 µM | [20] 21.4 µM

CN(CC(=O)O)c1ncc2c(n1)C=CCC2
inactive: [1] > 100 µM | [2] 81.5 µM | [3] > 100 µM | [4] > 100 µM | [5] > 100 µM | [6] > 100 µM | [7] > 100 µM | [8] > 100 µM | [9] > 100 µM | [10] > 100 µM | [11] > 100 µM | [12] > 100 µM | [13] > 100 µM | [14] > 100 µM | [15] > 100 µM | [16] > 100 µM | [17] > 100 µM | [18] > 100 µM | [19] > 100 µM | [20] > 100 µM

FC(F)(F)C1(C(F)(F)F)O[Si]2(OC(C(F)(F)F)(C(F)(F)F)c3ccccc32)c2ccccc21
inactive: [1] 13.5 µM | [2] 13.6 µM | [3] 3.69 µM | [4] 7.62 µM | [5] 11.9 µM | [6] 16.3 µM | [7] 17.1 µM | [8] 9.44 µM | [9] 11.3 µM | [10] 14.4 µM | [11] 9.46 µM | [12] 10.6 µM | [13] 7.53 µM | [14] 6.58 µM | [15] 8.75 µM | [16] 17.2 µM | [17] 7.66 µM | [18] 15.8 µM | [19] 9.57 µM | [20] 17.4 µM

N=C(N)NC1C(O)C(O)C(O)C(NC(=N)N)C1O (stereo not given)
inactive: [1] > 100 µM | [2] > 100 µM | [3] > 100 µM | [4] > 100 µM | [5] > 100 µM | [6] > 100 µM | [7] > 100 µM | [8] > 100 µM | [9] > 100 µM | [10] > 100 µM | [11] > 100 µM | [12] > 100 µM | [13] > 100 µM | [14] > 100 µM | [15] > 100 µM | [16] > 100 µM | [17] > 100 µM | [18] > 100 µM | [19] > 100 µM | [20] > 100 µM

O=C(O)c1cc(/C=C/c2ccc(O)c(O)c2)ccc1O
inactive: [1] > 100 µM | [2] 30.7 µM | [3] > 100 µM | [4] > 100 µM | [5] > 100 µM | [6] > 100 µM | [7] > 100 µM | [8] > 100 µM | [9] 77.8 µM | [10] 30.8 µM | [11] > 100 µM | [12] > 100 µM | [13] > 100 µM | [14] > 100 µM | [15] > 100 µM | [16] 31 µM | [17] > 100 µM | [18] > 100 µM | [19] > 100 µM | [20] > 100 µM

O=C1CCSC(=S)N1c1ccc(Br)c(Cl)c1
inactive: [1] 35.3 µM | [2] 26 µM | [3] 25.4 µM | [4] 16.1 µM | [5] 39 µM | [6] 24.8 µM | [7] 31.2 µM | [8] 22 µM | [9] 26.8 µM | [10] 37.4 µM | [11] 22.9 µM | [12] 53.2 µM | [13] 21 µM | [14] 42.9 µM | [15] 30.5 µM | [16] 33.7 µM | [17] 28.4 µM | [18] 37.6 µM | [19] 23.7 µM | [20] 30.2 µM

CCCCCCCCCCCCOP(=O)(O)OP(=O)(O)OCC1OC(n2cc(C)c(=O)[nH]c2=O)CC1O (stereo not given)
inactive: [1] > 100 µM | [2] > 100 µM | [3] > 100 µM | [4] > 100 µM | [5] > 100 µM | [6] > 100 µM | [7] > 100 µM | [8] > 100 µM | [9] > 100 µM | [10] > 100 µM | [11] > 100 µM | [12] > 100 µM | [13] > 100 µM | [14] > 100 µM | [15] > 100 µM | [16] > 100 µM | [17] > 100 µM | [18] > 100 µM | [19] > 100 µM | [20] > 100 µM
